Source: ChEMBL document CHEMBL3046697, “Syntheses, antifeedant activity, and QSAR analysis of new oxa(thia)diazolyl 3(2H)-pyridazinones” (J Agric Food Chem, 2005)

Assays:
[1] = test system: Mythimna separata; assay: Antifeedant activity against second-instar larvae of Mythimna separata (Oriental armyworm) in compound treated leaves assessed as growth inhibition measured after 5 days by chronic growth bioassay; type: functional, organism-based; settings: 120 h
[2] = Hydrophobicity, log P of the compound; type: physicochemical; settings: octanol/water

| SMILES | EC50 ([1]; read-out: EC50) | EC50 ([1]; read-out: pEC50 (converted)) | logP [2] |
| --- | --- | --- | --- |
| CC(C)(C)n1ncc(OCc2nnc(-c3ccccc3F)o2)c(Cl)c1=O | 16.8 µg/mL | 16.8 µM | 2.89 |
| CCCCn1ncc(OCc2nnc(-c3ccc(F)cc3)o2)c(Cl)c1=O | 162 µg/mL | 161 µM | – |
| CCCCn1ncc(OCc2nnc(-c3ccc(Cl)cc3)o2)c(Cl)c1=O | 224 µg/mL | 223 µM | – |
| CCn1ncc(OCc2nnc(-c3ccccc3)o2)c(Cl)c1=O | > 300 µg/mL | > 300 µM | – |
| CCn1ncc(OCc2nnc(-c3ccc(F)cc3)o2)c(Cl)c1=O | > 300 µg/mL | > 300 µM | – |
| CC(C)(C)n1ncc(OCc2nnc(-c3c(F)c(F)c(F)c(F)c3F)o2)c(Cl)c1=O | 271 µg/mL | 271 µM | 3.06 |
| CC(C)(C)n1ncc(OCc2nnc(-c3cc(F)c(F)cc3F)o2)c(Cl)c1=O | 75.7 µg/mL | 75.7 µM | 2.96 |
| COc1c(F)c(F)cc(-c2nnc(COc3cnn(C(C)(C)C)c(=O)c3Cl)o2)c1F | > 300 µg/mL | > 300 µM | – |
| CC(C)(C)n1ncc(OCc2nnc(-c3ccc(Cl)cc3F)o2)c(Cl)c1=O | 10.4 µg/mL | 10.4 µM | 3.23 |
| CC(C)(C)n1ncc(OCc2nnc(-c3cc(F)c(F)c(F)c3F)o2)c(Cl)c1=O | 241 µg/mL | 240 µM | 3.18 |
| CC(C)(C)n1ncc(OCc2nnc(-c3ccc(C(F)(F)F)cc3)o2)c(Cl)c1=O | 34.1 µg/mL | 33.8 µM | 3.66 |
| Cc1nnc(COc2cnn(C(C)(C)C)c(=O)c2Cl)o1 | > 300 µg/mL | > 300 µM | – |
| CC(C)(C)n1ncc(OCc2nnc(-c3ccco3)o2)c(Cl)c1=O | > 300 µg/mL | > 300 µM | – |
| CC(C)(C)n1ncc(OCc2nnc(-c3cccs3)o2)c(Cl)c1=O | > 300 µg/mL | > 300 µM | – |
| O=c1c(Cl)c(OCc2nnc(-c3ccccc3)o2)cnn1-c1ccccc1 | 91.5 µg/mL | 91.4 µM | – |
| CCCCn1ncc(OCc2nnc(-c3ccccc3)o2)c(Cl)c1=O | > 300 µg/mL | > 300 µM | – |
| CC(C)(C)n1ncc(OCc2nnc(-c3cc(F)c(Cl)cc3Cl)o2)c(Cl)c1=O | 23.1 µg/mL | 23.1 µM | 3.36 |
| CC(C)(C)n1ncc(SCc2nnc(-c3ccccc3)o2)c(Cl)c1=O | > 300 µg/mL | > 300 µM | – |
| CC(C)(C)n1ncc(SCc2nnc(-c3ccc(F)cc3)o2)c(Cl)c1=O | 150 µg/mL | 151 µM | – |
| CC(C)(C)n1ncc(SCc2nnc(-c3cccc(F)c3)o2)c(Cl)c1=O | 243 µg/mL | 243 µM | – |
| CC(C)(C)n1ncc(SCc2nnc(-c3ccccc3F)o2)c(Cl)c1=O | 269 µg/mL | 270 µM | – |
| CC(C)(C)n1ncc(SCc2nnc(-c3ccc(Cl)cc3)o2)c(Cl)c1=O | 180 µg/mL | 180 µM | – |
| Cc1cc(C)cc(-c2nnc(CSc3cnn(C(C)(C)C)c(=O)c3Cl)o2)c1 | > 300 µg/mL | > 300 µM | – |
| Cc1cccc(-c2nnc(CSc3cnn(C(C)(C)C)c(=O)c3Cl)o2)c1 | > 300 µg/mL | > 300 µM | – |
| CC(C)(C)n1ncc(SCc2nnc(-c3ccc([N+](=O)[O-])cc3)o2)c(Cl)c1=O | > 300 µg/mL | > 300 µM | – |

| SMILES | EC50 ([1]; read-out: EC50) | EC50 ([1]; read-out: pEC50 (converted)) | logP [2] |
| --- | --- | --- | --- |
| CC(C)(C)n1ncc(OCc2nnc(-c3ccc(Br)cc3)o2)c(Cl)c1=O | 21.4 µg/mL | 21.4 µM | 3.21 |
| CC(C)(C)n1ncc(OCc2nnc(-c3ccc(Cl)cc3Cl)o2)c(Cl)c1=O | 27.8 µg/mL | 27.8 µM | 3.52 |
| CC(C)(C)n1ncc(OCc2nnc(-c3ccccc3Cl)o2)c(Cl)c1=O | 61.2 µg/mL | 61.2 µM | 3.19 |
| CC(C)(C)n1ncc(OCc2nnc(-c3ccccc3)s2)c(Cl)c1=O | 200 µg/mL | 200 µM | – |
| CC(C)(C)n1ncc(OCc2nnc(-c3ccc(F)cc3)s2)c(Cl)c1=O | 21.5 µg/mL | 21.5 µM | – |
| CC(C)(C)n1ncc(OCc2nnc(-c3ccccc3F)s2)c(Cl)c1=O | 121 µg/mL | 121 µM | – |
| CC(C)(C)n1ncc(OCc2nnc(-c3ccc(Cl)cc3)s2)c(Cl)c1=O | 106 µg/mL | 106 µM | – |
| CC(C)(C)n1ncc(OCc2nnc(-c3ccc(Cl)cc3Cl)s2)c(Cl)c1=O | 62.2 µg/mL | 62.2 µM | – |
| CC(C)(C)n1ncc(OCc2nnc(-c3cc(F)c(Cl)cc3Cl)s2)c(Cl)c1=O | 67.1 µg/mL | 67.1 µM | – |
| Cc1cccc(-c2nnc(COc3cnn(C(C)(C)C)c(=O)c3Cl)s2)c1 | > 300 µg/mL | > 300 µM | – |
| Cc1cc(C)cc(-c2nnc(COc3cnn(C(C)(C)C)c(=O)c3Cl)s2)c1 | > 300 µg/mL | > 300 µM | – |
| CC(C)(C)n1ncc(OCc2nnc(-c3c(F)cccc3F)o2)c(Cl)c1=O | 45.4 µg/mL | 45.4 µM | 2.75 |
| CC(C)(C)n1ncc(OCc2nnc(-c3cc(F)c(Cl)c([N+](=O)[O-])c3Cl)o2)c(Cl)c1=O | > 300 µg/mL | > 300 µM | – |
| CC(C)(C)n1ncc(OCc2nnc(-c3ccccc3)o2)c(Cl)c1=O | 12.2 µg/mL | 12.2 µM | 2.95 |
| CC(C)(C)n1ncc(OCc2nnc(-c3ccc([N+](=O)[O-])cc3)o2)c(Cl)c1=O | > 300 µg/mL | > 300 µM | – |
| Cc1cccc(-c2nnc(COc3cnn(C(C)(C)C)c(=O)c3Cl)o2)c1 | 116 µg/mL | 116 µM | 3.02 |
| Cc1cc(C)cc(-c2nnc(COc3cnn(C(C)(C)C)c(=O)c3Cl)o2)c1 | > 300 µg/mL | > 300 µM | – |
| Cc1ccc(-c2nnc(COc3cnn(C(C)(C)C)c(=O)c3Cl)o2)cc1 | 19.9 µg/mL | 19.9 µM | 3.01 |
| CC(C)(C)n1ncc(OCc2nnc(-c3ccc(F)cc3)o2)c(Cl)c1=O | 5.2 µg/mL | 5.2 µM | 2.69 |
| CCc1ccc(-c2nnc(COc3cnn(C(C)(C)C)c(=O)c3Cl)o2)cc1 | 14.5 µg/mL | 14.5 µM | 3.52 |
| CC(C)(C)n1ncc(OCc2nnc(-c3ccc(Cl)cc3)o2)c(Cl)c1=O | 1.9 µg/mL | 1.9 µM | 3.09 |
| COc1ccc(-c2nnc(COc3cnn(C(C)(C)C)c(=O)c3Cl)o2)cc1 | 17.7 µg/mL | 17.7 µM | 3.52 |
| CC(C)(C)n1ncc(OCc2nnc(-c3cccc(F)c3)o2)c(Cl)c1=O | 7.1 µg/mL | 7.1 µM | 2.69 |
| C/C=C(\C)C(=O)O[C@H]1C[C@@H](OC(C)=O)[C@@]2(C(=O)OC)CO[C@H]3[C@@H](O)[C@@](C)([C@]45O[C@@]4(C)[C@@H]4C[C@H]5O[C@@H]5OC=C[C@@]54O)[C@H]4[C@]1(CO[C@]4(O)C(=O)OC)[C@@H]32 [AZADIRACHTIN A] | 0.58 µg/mL | 0.579 µM | – |
